The values that follow come from publication PMC11645267, “Novel pharmacologic inhibition of lysine-specific demethylase 1 as a potential therapeutic for glioblastoma” (Cancer Gene Therapy, 2024).

Some results are limits rather than exact numbers.

Common to all, as to type: cell-based
Experiment [1] relates to F3. Briefly: Stemness marker expression (qPCR, western blot). The following applies: F3, 5 μM, 96 h. The source says: Super-enhancers consist of enhancer clusters with abundant binding of transcription factors and are highly enriched with H3K27ac marks. The H3K4me2 increased regions included the MYC locus and H3K4me2 de novo regions comprised Nestin and SOX2 loci (Fig. 2F, Supplementary Fig. S5A). These regions were also identified as super-enhancers in GSCs using data from our previous study (Fig. 2F). Compared to the large increase in H3K4me2 in these regions, changes in H3K4me3 were subtle after S2172 treatment (only 2582 regions were acquired modification) (Fig. 2C). Increasing the me2/me3 ratio at H3K4 is associated with reduced gene expression. […]
instructions. For GSC cells, the CellTiter-Glo 3D Viability Assay (Promega, Madison, WI, USA) was used to measure the living cells. All proliferation experiments were repeated […]
A. Left panel: Western blot analysis of H3K4me1, H3K4me2, H3K4me3, and H3K9me2 after treatment with either DMSO or S2172 5μM for 96 h in normal neural stem cell F3 . […] Right panel: Quantification of signal intensities of the Western blot. […]
C. […] Right panel: Quantification of band signal intensities from the Western blot.
Error bars indicate the SD; n = 3. […] The ratio was calculated by dividing the intensity of the cleaved PARP band by the full-length PARP band. […]
Background: Real-time PCR tracks product formation cycle by cycle.

Experiment [2] has as its system F3. Description: Cell proliferation assay (Cell Counting Kit 8). The following applies: 96 h; F3 (normal neural stem cell line), 4 days; read-out: Growth inhibitory IC50 (GI50). The text has this: (§1) Supplementary materials and methods […]
(§2) Cell lines and culture conditions
(§3) Glioblastoma cell line, LN229, was obtained from the American Type Culture Collection (ATCC, Manassas, VA, USA). Normal fibroblast cell lines TIG3 and WI-38, TM31 (low grade glioma) were obtained from the RIKEN Bioresource Research Center (Tsukuba, Japan). Onda10 and KINGS1 (low grade glioma) cell lines were obtained from the Japanese Collection of Research Bioresources (Ibaraki, Japan). F3 is utilized as a neural stem cell line{Kim, 2004 #1412}{Natsume, 2013 #1009}. All cells were maintained in DMEM medium (Wako, Osaka, Japan) containing 5% fetal bovine serum (FBS, Thermo Fisher Scientific, Waltham, MA, USA) and 1% penicillin-streptomycin (Wako). […]
(§4) For the cell proliferation assay, cells at a density of 1 × 10^5 cells per well were seeded before treatment with LSD1 inhibitors. Cell proliferation was measured after 4 days using a Cell Counting Kit 8 (Dojindo, Kumamoto, Japan) according to the manufacturer ’s […]
(§5) instructions. For GSC cells, the CellTiter-Glo 3D Viability Assay (Promega, Madison, WI, USA) was used to measure the living cells. […]
(Tetrazolium dyes change colour on reduction, which living cells bring about.)

The subject of experiment [3] is Onda10. Description: Cell proliferation assay (Cell Counting Kit 8). The following applies: 96 h; Onda10 (grade III glioma), 4 days; read-out: Growth inhibitory IC50 (GI50).
Description: as §1, §2, §3, §4, §5

The test system of experiment [4] is TIG3. Description: Cell proliferation assay (Cell Counting Kit 8). The following applies: Homo sapiens, TIG-3, 96 h; TIG3 (normal fibroblast), 4 days; read-out: Growth inhibitory IC50 (GI50).
Description: as §1, §2, §3, §4, §5

The subject of experiment [5] is WI38. Briefly: Cell proliferation assay (Cell Counting Kit 8). The following applies: Homo sapiens, WI-38, 96 h; WI38 (normal fibroblast), 4 days; read-out: Growth inhibitory IC50 (GI50).
Description: as §1, §2, §3, §4, §5

The subject of experiment [6] is TM31. Description: Cell proliferation assay (Cell Counting Kit 8). The following applies: 96 h; TM31 (grade III glioma), 4 days; read-out: Growth inhibitory IC50 (GI50).
Description: as §1, §2, §3, §4, §5

The test system of experiment [7] is LN229. Description: Cell proliferation assay (Cell Counting Kit 8). The following applies: Homo sapiens, LN-229, 96 h; LN229 (GBM cell line), 4 days; read-out: Growth inhibitory IC50 (GI50).
Description: as §1, §2, §3, §4, §5

Experiment [8] has as its system KINGS1. Description: Cell proliferation assay (Cell Counting Kit 8). The following applies: Homo sapiens, KINGS-1, 96 h; KINGS1 (grade III glioma), 4 days; read-out: Growth inhibitory IC50 (GI50).
Description: as §1, §2, §3, §4, §5

As for `NC1CCC(NC2CC2c2cc(F)cc(F)c2OCc2ccccc2)CC1` (centres unmarked) [S2172], the “expression levels of stemness markers” value in experiment [1] is reported as “not significantly affected”. In addition, the IC50 (in general, the midpoint of a concentration-inhibition curve) in experiment [2] is 22.5 µM; in experiment [3], 21 µM; in experiment [4], over 40 µM; in experiment [5], 29.9 µM; in experiment [6] it was 17 µM; in experiment [7] it was 8.2 µM. In addition, the IC50 in experiment [8] is 33 µM.
